Columns and labels:
Conditions in all cases: relative to thienamycin (=1.0)
S. aureus = assay: Agar disc-diffusion assay, relative antibacterial potency; type: cell-based
Description: (§1) The antibacterial activities of the compounds of this invention illustrated in the examples were determined using the following method.
(§2) Antibacterial activities were determined by the disc-diffusion assay described by Bauer et al., Amer. J. Clin. Pathol., 45, 493 (1966), except that an agar thickness of 0.2 cm was used. Thienamycin or imipenem was used as the internal standard. For maximum reproducibility, the inner, completely clear region of the zone of inhibition was measured. Inhibiting concentration at the edge of the zone was computed for each test compound using equation (3) (rearranged) reported by Humphrey and Lightbown in J. Gen. Microbiol., 7, 129 (1952), which takes into account differing molecular weights and resulting diffusion constants. Ratios of the geometric means of the inhibitory concentrations to that of thienamycin were determined for each test compound.
(§3) Antibacterial potencies were determined using standard agar disc diffusion assays and are reported relative to thienamycin (=1.0). Dehydropeptidase-I (DHP-I) susceptibilities were determined by the method of Kropp et al., Antimicrobial Agents Chemother., 22, 62-70 (1982), and are reported relative to thienamycin (=1.0).

E. coli = assay: as above; type: cell-based
Description: as §1, §2, §3

Ps. aeruginosa = assay: as above; type: cell-based
Description: as §1, §2, §3

Serratia = assay: as above; type: cell-based
Description: as §1, §2, §3

Proteus (Ind. + and -) = assay: as above; type: cell-based
Description: as §1, §2, §3

Enterococcus = assay: as above; type: cell-based
Description: as §1, §2, §3

Klebsiella = assay: as above; type: cell-based
Description: as §1, §2, §3

Enterobacter = assay: as above; type: cell-based
Description: as §1, §2, §3

[1] = tested on: Dehydropeptidase-I (DHP-I); assay: Dehydropeptidase-I susceptibility (method of Kropp et al.); type: in vitro ADME
Text: Antibacterial compounds of Formula I are of the broad class known as carbapenems or 1-carbadethiapenems. Certain of these carbapenems are susceptible to attack by a renal enzyme known as dehydropeptidase (DHP). This attack or degradation may reduce the efficacy of the carbapenem antibacterial agent. Inhibitors of DHP and their use with carbapenem antibacterial agents are disclosed in the prior art. See European Patent Applications No. 79102616.4 filed July 24, 1979 (Publication No. 0 010 573); 79102615.6, filed July 24, 1979 (Publication No. 0 007 614); and 82107174.3, filed August 9, 1982 (Publication No. 0 072 014).
as §3

Row | SMILES | Relative Antibacterial Potencies (S. aureus) | Relative Antibacterial Potencies (E. coli) | Relative Antibacterial Potencies (Ps. aeruginosa) | Relative Antibacterial Potencies (Serratia) | Relative Antibacterial Potencies (Proteus (Ind. + and -)) | Relative Antibacterial Potencies (Enterococcus) | Relative Antibacterial Potencies (Klebsiella) | Relative Antibacterial Potencies (Enterobacter) | DHP-I susceptibility [1]
1 | CC(=O)OCC1=C(C(=O)O)N2C(=O)[C@H]([C@@H](C)O)[C@H]2[C@H]1C [Example 2, Potassium (1S,1′R,5R,6S)-2-acetoxymethyl-6-(1′-hydroxyethyl)-1-methylcarbapen-2-em-3-carboxylate] | 0.7 | 4.0 | 0.09 | 12.1 | 27.9 | 2.8 | 2.5 | 7.0 | 0.52
2 | C[C@@H](O)[C@H]1C(=O)N2C(C(=O)O)=C(CN=[N+]=[N-])[C@H](C)[C@H]12 [Example 3, Potassium (1S,1′R,5R,6S)-2-azidomethyl-6-(1′-hydroxyethyl)-1-methylcarbapen-2-em-3-carboxylate] | 1.4 | 9.2 | 0.06 | 22.6 | 29.9 | 2.0 | 4.3 | 11.3 | 7.29
3 | C[C@@H](O)[C@H]1C(=O)N2C(C(=O)[O-])=C(COC(=O)NCC[n+]3ccccc3)[C@H](C)[C@H]12 [Example 8, (1S,1′R,5R,6S)-6-(1′-hydroxyethyl)-1-methyl-2-(2˝-pyridiniumethylaminocarbonyloxymethyl)carbapen-2-em-3-carboxylic acid] | 0.87 | 0.93 | 0.33 | 2.1 | 2.5 | 2.3 | 1.1 | 2.1 | 0.05
4 | C[C@@H](O)[C@H]1C(=O)N2C(C(=O)O)=C(CO)[C@H](C)[C@H]12 [Example 1, Potassium (1S,1′R,5R,6S)-2-hydroxymethyl-6-(1′-hydroxyethyl)-1-methylcarbapen-2-em-3-carboxylate] | 0.4 | 2.3 | 0.2 | 4.3 | 3.0 | 1.0 | 2.0 | 3.7 | 0.76
5 | C[C@@H](O)[C@H]1C(=O)N2C(C(=O)O)=C(COC(=O)N(C)C)[C@H](C)[C@H]12 [Example 7, Potassium (1S,1′R,5R,6S)-2-dimethylamino carbonyloxymethyl-6-(1′-hydroxyethyl)-1-methylcarbapen-2-em-3-carboxylate] | 1.4 | 0.6 | 0.04 | 1.4 | 11.3 | 1.2 | 0.4 | 0.8 | 0.29
6 | C[C@@H](O)[C@H]1C(=O)N2C(C(=O)O)=C(COC(N)=O)[C@H](C)[C@H]12 [Example 4, Potassium (1S,1′R,5R,6S)-2-aminocarbonyloxy methyl-6-(1′-hydroxyethyl)-1-methylcarbapen-2-em-3-carboxylate] | 0.9 | 6.1 | 0.4 | 32 | 14.9 | 5.7 | 7.0 | 22.6 | 0.39
7 | CNC(=O)OCC1=C(C(=O)O)N2C(=O)[C@H]([C@@H](C)O)[C@H]2[C@H]1C [Example 5, Potassium (1S,1′R,5R,6S)-2-methylaminocarbonyl oxymethyl-6-(1′-hydroxyethyl)-1-methylcarbapen-2-em-3-carboxylate] | 0.8 | 5.7 | 0.2 | 16 | 16 | 3.7 | 7.0 | 9.8 | 0.59
8 | C[C@@H](O)[C@H]1C(=O)N2C(C(=O)O)=C(CN)[C@H](C)[C@H]12 [Example 9, (1S,1′R,5R,6S)-2-aminomethyl-6-(1′-hydroxyethyl)-1-methylcarbapen-2-em-3-carboxylic acid] | 0.6 | 0.2 | 0.4 | 0.2 | 0.2 | 0.3 | 0.2 | 0.3 | 0.06
9 | C[C@@H](O)[C@H]1C(=O)N2C(C(=O)O)=C(COC(=O)Nc3ccccc3)[C@H](C)[C@H]12 [Example 6, Potassium (1S,1′R,5R,6S)-2-phenylaminocarbonyloxymethyl-6-(1′-hydroxyethyl)-1-methylcarbapen-2-em-3-carboxylate] | 1.2 | 0.6 | 0.03 | 0.3 | 4.9 | 2.8 | 0.2 | 0.2 | 1.35

From patent publication EP0292191A1, “2-(Substituted methyl)-1-alkylcarbapenem derivatives” (Merck & Co., Inc., priority 1987, dated 1988)
